This note sets out measurements from patent publication US9743675B2, “Antimicrobial composition” (UNIVERSITY OF SURREY, priority 2009, dated 2017).

The structures appear in SMILES notation. Several values for one entry are separate records, joined by “and”; a condition that tells them apart may be missing. Equal values may be shown once. Read-outs that look alike come from different tables or passages of the source.

Data set [1] deals with Salmonella enteritidis. The data set can be described thus: micro broth dilution, coniferaldehyde and vanillin with and without DHAA (Example 9). In kind it is cell-based. The conditions noted are these: Vanilin/Coniferylaldehyde 0/5 mM; DHAA 20 mM if combined. As for the experimental part: All stock solutions were stored at 5° C. In vitro bioassay: The MIC of the different treatments was determined using a micro broth dilution method. […] Control wells were prepared by adding 100 μL acetone. […] […] The plates were placed in a laminar flow chamber for 8 hours to evaporate the solvent. […] Where possible, colonies were counted to obtain more precise quantitative data.
(Broth dilution looks for growth in wells or tubes with falling amounts of substance.)

For data set [2], the system named is Salmonella enterica. The data set can be described thus: perlite assay, survival of Salmonella enterica: vanillin with dehydro-abietic acid (Example 1). The format is cell-based. On the procedure:
A 20 mmol solution of dehydroabietic acid in alcohol and water was also prepared.

Data set [3] in a line: solubility in water, concluded from water extraction of heated pine shavings. The format is physicochemical.
Data set [4] concerns Salmonella enterica.
For data set [5], the system named is S. enteritidis. The data set can be described thus: inhibition zone experiment on TLC plate. The conditions noted are these: FIG. 3. In kind it is cell-based. As for the experimental part: Two test solutions were prepared, i.e.: (i) vanillin in combination with DHAA, and (ii) stilbene in combination with dehydro-abietic acid (DHAA). The activity of the solutions were then tested on several different micro-organisms, as follows.
A droplet of a test solution was placed on a TLC plate. The solvent was allowed to evaporate and a suspension of test micro-organisms (Gram-positive and Gram-negative bacteria) in broth was applied evenly onto the TLC plate. The plate was incubated overnight. To visualise microbial activity, the TLC plate was sprayed with tetrazolium salt solution. Microbial activity was indicated by a red-pink colour.

The subject of data set [6] is Salmonella enterica. The format is cell-based. As for the experimental part:
20 mmol solutions of ursolic acid, oleonic acid and betulin in alcohol were also prepared.

Data set [7] has as its system Salmonella enteritidis. Nature of the data set: perlite bio-assay with pure DHAA and vanillin (Example 7). In kind it is cell-based. The conditions noted are these: DHAA (10 μl of 20 mM) if +DA. On the procedure: Also, one 20 mM stock solution of DHAA was made in acetone. Bioassay test: The test was carried out using 1.5 ml Eppendorf tubes containing 10 mg of fine perlite. Ten μl of each concentration of vanillin was dispensed into four Eppendorf tubes to obtain four replicates of each concentration. Two of these received 10 μl of DHAA. The tubes were left in laminar flow chamber for 3 h to allow evaporation of the acetone. […] To keep the perlite moist during incubation, 10 μl of sterile R.O water was dispensed into each tube. As controls, two tubes received DHAA only and two tubes received R.O water only. The tubes were incubated overnight, and bacterial survival was quantified by plating the content of each tube onto nutrient agar for the bacterial count.

In data set [8] the test system is S. cerevisiae. The data set can be described thus: inhibition zone experiment on TLC plate. The format is cell-based. The conditions noted are these: FIG. 8, S. cerevisiae; on its own or in combination with DHAA. As for the experimental part: Two test solutions were prepared, i.e.: (i) vanillin in combination with DHAA, and (ii) stilbene in combination with dehydro-abietic acid (DHAA). The activity of the solutions were then tested on several different micro-organisms, as follows. A droplet of a test solution was placed on a TLC plate. The solvent was allowed to evaporate and a suspension of test micro-organisms (Gram-positive and Gram-negative bacteria) in broth was applied evenly onto the TLC plate. The plate was incubated overnight. To visualise microbial activity, the TLC plate was sprayed with tetrazolium salt solution. Microbial activity was indicated by a red-pink colour. To show the efficacy of the solutions against filamentous fungi, the inoculated TLC plates were incubated until the fungus started to sporulate. To show efficacy against yeast, after incubation, the TLC plates were pressed against a nutrient agar plate. The plate was incubated until yeast colonies were clearly visible.

For the molecule `COc1cc(/C=C/C=O)ccc1O` [Coniferyl aldehyde, coniferaldehyde], the Colony counts entry in data set [1] is given as “TMTC”.
As for `CC(C)c1ccc2c(c1)CC[C@H]1[C@](C)(C(=O)O)CCC[C@]21C` [Dehydro-Abietic acid, dehydroabietic acid], in data set [2] (DHAA 20 mmol alone, vanillin 0), the “Average no of cfu recovered per droplet” value is over 100 cfu. For the same molecule, in data set [3], the solubility in water result is “poorly-soluble in water”.
Take `COc1cc(C=O)ccc1O` [Vanillin, 4-hydroxy-3-methoxybenzaldehyde]: the “Average no. of cfu recovered per droplet” value in data set [4] (vanillin 20 mmol, citric acid 20 mmol if combined) is over 100 cfu; in data set [6], over 100 cfu. Also, the “inhibition of S. enteritidis on TLC plate” value in data set [5] was “ineffective”. For the same molecule, the “Average no of cfu recovered per droplet” value in data set [2] (vanillin 0.001 mmol, DHAA 20 mmol if combined) was over 100 cfu; in data set [2] (vanillin 0.019 mmol, DHAA 20 mmol if combined), over 100 cfu; in data set [2] (vanillin 0.039 mmol, DHAA 20 mmol if combined) it was over 100 cfu; in data set [2] (vanillin 0.078 mmol, DHAA 20 mmol if combined), over 100 cfu; in data set [2] (vanillin 0.156 mmol, DHAA 20 mmol if combined), over 100 cfu; in data set [2] (vanillin 0.313 mmol, DHAA 20 mmol if combined), over 100 cfu. Besides, the “Average no of cfu recovered per droplet” value is reported as over 100 cfu in data set [2] (vanillin 0.625 mmol, DHAA 20 mmol if combined); over 100 cfu in data set [2] (vanillin 1.25 mmol, DHAA 20 mmol if combined); over 100 cfu in data set [2] (vanillin 2.5 mmol, DHAA 20 mmol if combined); over 100 cfu in data set [2] (vanillin 5 mmol, DHAA 20 mmol if combined); over 100 cfu in data set [2] (vanillin 10 mmol, DHAA 20 mmol if combined); over 100 cfu in data set [2] (vanillin 20 mmol, DHAA 20 mmol if combined). The “inhibitory effect on Salmonella” value in data set [2] (vanillin on its own, 20 mmol or less) was “no inhibitory effect”. Also, the Salmonella enteritidis count result was “TMTC” in data set [7] (vanillin 0.313 mM); “TMTC” in data set [7] (vanillin 2.5 mM); “TMTC” in data set [7] (vanillin 5 mM); 394 CFU/tube and 500 CFU/tube in data set [7] (vanillin 10 mM). For the same molecule, the “concentration of vanillin at which it is effective” value in data set [8] was 5 mM.
Turning to `C=C(C)[C@@H]1CC[C@]2(CO)CC[C@]3(C)[C@H](CC[C@@H]4[C@@]5(C)CC[C@H](O)C(C)(C)[C@@H]5CC[C@]43C)[C@@H]12` [betulin], the “Average no. of cfu recovered per droplet” value in data set [6] (triterpenoid 20 mmol alone, vanillin 0) is over 100 cfu.
`O=C(O)CC(O)(CC(=O)O)C(=O)O` [citric acid]: the “Average no. of cfu recovered per droplet” value in data set [4] (citric acid 20 mmol alone, vanillin 0) is listed as over 100 cfu.
For the molecule `CC1(C)CC[C@]2(C(=O)O)CC[C@]3(C)C(=CC[C@@H]4[C@@]5(C)CC[C@H](O)C(C)(C)[C@@H]5CC[C@]43C)[C@@H]2C1` [oleanic acid, oleanolic acid], the “Average no. of cfu recovered per droplet” value in data set [6] is given as over 100 cfu.
Regarding `C[C@H]1[C@H](C)CC[C@]2(C(=O)O)CC[C@]3(C)C(=CC[C@@H]4[C@@]5(C)CC[C@H](O)C(C)(C)[C@@H]5CC[C@]43C)[C@H]12` [ursolic acid], the “Average no. of cfu recovered per droplet” value in data set [6] is listed as over 100 cfu.
